Source: BindingDB's records for doi:10.1111/cbdd.12372 (Beijing University of Technology, 2015)
pIC50: −log10 of the molar value.

Target: T1, Casein kinase II subunit alpha [1-337] (Homo sapiens, UniProt P68400)
T1 construct: 1-337
Assay: Molecular Docking
Description: The atomic co-ordinates of CK2α were retrieved from the Protein Data Bank [PDB ID: 3PE1] by deleting the heteroatoms except for water molecules within 6.5 of the ligand. Compounds 12, 23, 10, and 27 were constructed with the SYBYL 8.1 programa using compound CX-4945 as the template and were energy minimized with the Tripos force field. Four compounds were docked into the active site of CK2α using the molecular docking program Genetic Optimization for Ligand Docking (GOLD) version 3.0. The active site of CK2α was defined as a 6.5- -radius sphere centered on CX-4945, which comprise all complete amino acids there in. The crystal structure of CK2a in complex with compound CX-4945 was used to optimize docking parameters and evaluate the reliability of the docking methods. The standard default genetic algorithm (GA) parameters were used for all calculations and applied to predi

T1 sequence (P68400 1-337): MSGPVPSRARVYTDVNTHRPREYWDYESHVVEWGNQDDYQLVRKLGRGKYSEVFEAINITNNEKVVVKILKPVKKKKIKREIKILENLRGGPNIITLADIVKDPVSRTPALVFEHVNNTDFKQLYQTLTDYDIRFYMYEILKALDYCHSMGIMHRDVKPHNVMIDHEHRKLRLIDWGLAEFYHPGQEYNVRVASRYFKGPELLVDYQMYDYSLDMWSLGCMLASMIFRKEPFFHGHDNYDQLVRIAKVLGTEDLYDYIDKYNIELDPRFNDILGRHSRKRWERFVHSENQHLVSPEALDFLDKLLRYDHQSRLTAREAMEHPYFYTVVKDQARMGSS

A pIC50 of less than 5.60 was found for `N#Cc1ccc2c(c1)nc(-c1ccc(Cl)cc1)c1ccncc12` [5-(4-chlorophenyl)benzo[c]2,6-naphthyridine-8-carbonitrile (Compound 10)] in this work.
